{"source": "patent US6916480B2", "about": "“Wiper containing a controlled-release anti-microbial agent” (Kimberly-Clark Worldwide, Inc., priority 1999, dated 2005)", "origin": "cited, not measured here", "key": {"[1]": {"test_system": "E. Coli", "details": "according to most literature"}, "[2]": {"test_system": "Salmonella spp.", "details": "according to most literature"}}, "data": [{"compound": "[Ag]", "note": "[silver]", "values": [{"measurement": "silver content that can effectively kill microbes", "setting": "[1]", "value": "20 parts per billion (ppb)"}, {"measurement": "silver content that can effectively kill microbes", "setting": "[2]", "value": "20 parts per billion (ppb)"}]}]}
